Data on 26 compounds can be found in patent US9593108B2, “Compounds and methods for antiviral treatment” (PTC Therapeutics, Inc., priority 2009, dated 2017).

Molecules are shown by their SMILES.

Series [1] concerns HCV replicon RNA (GenBank Accession No. AJ242654). The experiment in a line: HCV Replicon Assay (replicon RNA reduction and/or Fluc reporter signal). Type of series: cell-based, Hepatitis C virus. The following applies: Hepatitis C virus, 72 h, replicon-containing cells cultured with test compound for up to 3 days. Summed up: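 Bicistronic replicon-containing cells cultured with compound for up to 3 days, with interferon as positive control. Inhibition quantified by replicon RNA reduction and/or Fluc reporter signal; IC50 values generally derived from replicon RNA reduction.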
(A replicon is a self-replicating genome or part of one, used to study replication in cells.)

A word on the IC50: it is the concentration that gives 50% inhibition. A low value points to greater potency. The melting point is the temperature of the solid-liquid transition. In the case of `CC(C)(NS(=O)(=O)c1ccc(-c2c(C#N)c3cc(OC(F)F)cnc3n2C2CCC2)nc1)C(F)(F)F` [Cpd 201, 6-[3-cyano-1-cyclobutyl-5-(difluoromethoxy)-1H-pyrrolo[2,3-b]pyridin-2-yl]-N-(1,1,1-trifluoro-2-methylpropan-2-yl)pyridine-3-sulfonamide], the melting point lay in the range of 168 to 169 °C. Also, the 50% inhibitory concentration (IC50) in series [1] is under 500 nM.
As to `CCOc1cnc2c(c1)c(C#N)c(-c1ccc(S(=O)(=O)N[C@@H](C)C(F)(F)F)cn1)n2C1CCC1` [Cpd 202, 6-(3-cyano-1-cyclobutyl-5-ethoxy-1H-pyrrolo[2,3-b]pyridin-2-yl)-N-[(2S)-1,1,1-trifluoropropan-2-yl]pyridine-3-sulfonamide], the melting point is 181 to 182 °C. The IC50 in series [1] is under 500 nM.
Regarding `CCOc1cnc2c(c1)c(C#N)c(-c1ccc(S(=O)(=O)N[C@H](C)C(F)(F)F)cn1)n2C1CCC1` [Cpd 203, 6-(3-cyano-1-cyclobutyl-5-ethoxy-1H-pyrrolo[2,3-b]pyridin-2-yl)-N-[(2R)-1,1,1-trifluoropropan-2-yl]pyridine-3-sulfonamide], the melting point was in the range of 180 to 181 °C. In series [1], the IC50 is under 500 nM.
In the same order, the values of `CCCOc1cnc2c(c1)c(C#N)c(-c1ccc(S(=O)(=O)N[C@@H](C)C(F)(F)F)cn1)n2C1CCC1` [Cpd 204, 6-(3-cyano-1-cyclobutyl-5-propoxy-1H-pyrrolo[2,3-b]pyridin-2-yl)-N-[(2S)-1,1,1-trifluoropropan-2-yl]pyridine-3-sulfonamide] are 170 to 171 °C and under 500 nM.
In the same order, the values of `CCCOc1cnc2c(c1)c(C#N)c(-c1ccc(S(=O)(=O)N[C@H](C)C(F)(F)F)cn1)n2C1CCC1` [Cpd 205, 6-(3-cyano-1-cyclobutyl-5-propoxy-1H-pyrrolo[2,3-b]pyridin-2-yl)-N-[(2R)-1,1,1-trifluoropropan-2-yl]pyridine-3-sulfonamide] are 169 to 170 °C and under 500 nM.
Turning to `Cc1cnc2c(C#N)c(-c3ccc(S(=O)(=O)N[C@@H](C)C(F)(F)F)cn3)n(C3CCC3)c2c1` [Cpd 206, 6-(3-cyano-1-cyclobutyl-6-methyl-1H-pyrrolo[3,2-b]pyridin-2-yl)-N-[(2S)-1,1,1-trifluoropropan-2-yl]pyridine-3-sulfonamide], the melting point lay within 217 to 218 °C. In addition, the half-inhibitory concentration (IC50) in series [1] is 500 to 2000 nM.
The corresponding values for `Cc1cnc2c(C#N)c(-c3ccc(S(=O)(=O)N[C@H](C)C(F)(F)F)cn3)n(C3CCC3)c2c1` [Cpd 207, 6-(3-cyano-1-cyclobutyl-6-methyl-1H-pyrrolo[3,2-b]pyridin-2-yl)-N-[(2R)-1,1,1-trifluoropropan-2-yl]pyridine-3-sulfonamide] are 207 to 209 °C and 500 to 2000 nM.
The compound `Cc1cnc2c(C#N)c(-c3ccc(S(=O)(=O)NC4(C(F)(F)F)CC4)cn3)n(C3CCC3)c2c1` [Cpd 208, 6-(3-cyano-1-cyclobutyl-6-methyl-1H-pyrrolo[3,2-b]pyridin-2-yl)-N-[1-(trifluoromethyl)cyclopropyl]pyridine-3-sulfonamide] showed a melting point of 248 to 249 °C. Moreover, the half-maximal inhibitory concentration (IC50) in series [1] was under 500 nM.
For `Cc1cnc2c(C#N)c(-c3ccc(S(=O)(=O)NC(C)(C)C(F)(F)F)cn3)n(C3CCC3)c2c1` [Cpd 209, 6-(3-cyano-1-cyclobutyl-6-methyl-1H-pyrrolo[3,2-b]pyridin-2-yl)-N-(1,1,1-trifluoro-2-methylpropan-2-yl)pyridine-3-sulfonamide], the melting point lay within 238 to 240 °C. In series [1], this compound displayed an IC50 of under 500 nM.
In the same order, the values of `Cc1cnc2c(C#N)c(-c3ccc(S(=O)(=O)NC4(C)CC4)cn3)n(C3CCC3)c2c1` [Cpd 210, 6-(3-cyano-1-cyclobutyl-6-methyl-1H-pyrrolo[3,2-b]pyridin-2-yl)-N-(1-methylcyclopropyl)pyridine-3-sulfonamide] are 187 to 188 °C and under 500 nM.
As to `Cc1cnc2c(C#N)c(-c3ccc(S(=O)(=O)NC(C)(C)C)cn3)n(C3CCC3)c2c1` [Cpd 211, N-tert-butyl-6-(3-cyano-1-cyclobutyl-6-methyl-1H-pyrrolo[3,2-b]pyridin-2-yl)pyridine-3-sulfonamide], the melting point lay within 227 to 229 °C. For the same compound, the IC50 in series [1] was under 500 nM.
The compound `Cc1cnc2c(C#N)c(-c3ccc(S(=O)(=O)NC(CF)CF)cn3)n(C3CCC3)c2c1` [Cpd 212, 6-(3-cyano-1-cyclobutyl-6-methyl-1H-pyrrolo[3,2-b]pyridin-2-yl)-N-(1,3-difluoropropan-2-yl)pyridine-3-sulfonamide] had a melting point of 219 to 221 °C. This compound had a concentration for half-maximal inhibition (IC50) in series [1] of under 500 nM.
As for `Cc1cnc2c(C#N)c(-c3ncc(S(=O)(=O)NC(CF)CF)cn3)n(C3CCC3)c2c1` [Cpd 213, 2-(3-cyano-1-cyclobutyl-6-methyl-1H-pyrrolo[3,2-b]pyridin-2-yl)-N-(1,3-difluoropropan-2-yl)pyrimidine-5-sulfonamide], the melting point lay within 269 to 271 °C. The IC50 in series [1] was under 500 nM.
In the same order, the values of `Cc1cnc2c(C#N)c(-c3ncc(S(=O)(=O)NC(C)C)cn3)n(C3CCC3)c2c1` [Cpd 214, 2-(3-cyano-1-cyclobutyl-6-methyl-1H-pyrrolo[3,2-b]pyridin-2-yl)-N-(propan-2-yl)pyrimidine-5-sulfonamide] are 278 to 280 °C and under 500 nM.
The compound `Cc1cnc2c(C#N)c(-c3ncc(S(=O)(=O)N[C@@H](C)C(F)(F)F)cn3)n(C3CCC3)c2c1` [Cpd 215, 2-(3-cyano-1-cyclobutyl-6-methyl-1H-pyrrolo[3,2-b]pyridin-2-yl)-N-[(2S)-1,1,1-trifluoropropan-2-yl]pyrimidine-5-sulfonamide] had a melting point of 268 to 269 °C. Also, in series [1], the IC50 is 500 to 2000 nM.
In the same order, the values of `Cc1cnc2c(C#N)c(-c3ccc(S(=O)(=O)N[C@@H](C)C(F)(F)F)cc3)n(C3CCC3)c2c1` [Cpd 216, 4-(3-cyano-1-cyclobutyl-6-methyl-1H-pyrrolo[3,2-b]pyridin-2-yl)-N-[(2S)-1,1,1-trifluoropropan-2-yl]benzenesulfonamide] are 245 to 246 °C and 500 to 2000 nM.
`Cc1cnc2c(C#N)c(-c3ccc(S(=O)(=O)N[C@H](C)C(F)(F)F)cc3)n(C3CCC3)c2c1` [Cpd 217, 4-(3-cyano-1-cyclobutyl-6-methyl-1H-pyrrolo[3,2-b]pyridin-2-yl)-N-[(2R)-1,1,1-trifluoropropan-2-yl]benzenesulfonamide] showed a melting point of 252 to 253 °C. Moreover, in series [1], the IC50 lay in the range of 2000 to 5000 nM.
The corresponding values for `CC(C)Oc1cnc2c(c1)c(C#N)c(-c1ccc(S(=O)(=O)N[C@@H](C)C(F)(F)F)cn1)n2C1CCC1` [Cpd 218, 6-[3-cyano-1-cyclobutyl-5-(propan-2-yloxy)-1H-pyrrolo[2,3-b]pyridin-2-yl]-N-[(2S)-1,1,1-trifluoropropan-2-yl]pyridine-3-sulfonamide] are 168 to 169 °C and under 500 nM.
In the same order, the values of `CCc1cc2c(C#N)c(-c3ccc(S(=O)(=O)N[C@@H](C)C(F)(F)F)cc3)n(C3CCC3)c2cn1` [Cpd 219, 4-(3-cyano-1-cyclobutyl-5-ethyl-1H-pyrrolo[2,3-c]pyridin-2-yl)-N-[(2S)-1,1,1-trifluoropropan-2-yl]benzenesulfonamide] are 200 to 203 °C and under 500 nM.
`CCc1cc2c(C#N)c(-c3ccc(NS(=O)(=O)C(C)C)cc3)n(C3CCC3)c2cn1` [Cpd 220, N-[4-(3-cyano-1-cyclobutyl-5-ethyl-1H-pyrrolo[2,3-c]pyridin-2-yl)phenyl]propane-2-sulfonamide]: the melting point fell in the range of 160 to 165 °C. In series [1], this compound displayed an IC50 of under 500 nM.
In the same order, the values of `C[C@H](NS(=O)(=O)c1ccc(-c2c(C#N)c3cccnc3n2C2CCCC2)nc1)C(F)(F)F` [Cpd 221, 6-(3-cyano-1-cyclopentyl-1H-pyrrolo[2,3-b]pyridin-2-yl)-N-[(2S)-1,1,1-trifluoropropan-2-yl]pyridine-3-sulfonamide] are 157 to 159 °C and under 500 nM.
Regarding `C[C@H](NS(=O)(=O)c1ccc(-c2c(C#N)c3cc(C4CC4)ncc3n2C2CCC2)nc1)C(F)(F)F` [Cpd 223, 6-(3-cyano-1-cyclobutyl-5-cyclopropyl-1H-pyrrolo[2,3-c]pyridin-2-yl)-N-[(2S)-1,1,1-trifluoropropan-2-yl]pyridine-3-sulfonamide], the melting point fell in the range of 200 to 205 °C. Besides, in series [1], the half-maximal inhibitory concentration (IC50) lay within 500 to 2000 nM.
In turn, `C[C@H](NS(=O)(=O)c1ccc(-c2c(C#N)c3cc(C4CC4)ncc3n2C2CCC2)cc1)C(F)(F)F` [Cpd 224, 4-(3-cyano-1-cyclobutyl-5-cyclopropyl-1H-pyrrolo[2,3-c]pyridin-2-yl)-N-[(2S)-1,1,1-trifluoropropan-2-yl]benzenesulfonamide] showed a melting point of 190 to 195 °C. Further, in series [1], the half-maximal inhibitory concentration (IC50) was under 500 nM.
In the same order, the values of `COc1cnc2c(c1)c(C(N)=O)c(-c1ccc(S(=O)(=O)N[C@@H](C)C(F)(F)F)cn1)n2C1CCC1` [Cpd 226, 1-cyclobutyl-5-methoxy-2-(5-{[(2S)-1,1,1-trifluoropropan-2-yl]sulfamoyl}pyridin-2-yl)-1H-pyrrolo[2,3-b]pyridine-3-carboxamide] are 233 to 235 °C and under 500 nM.
In the same order, the values of `C[C@H](NS(=O)(=O)c1ccc(-c2c(C#N)c3cc(C(F)(F)F)cnc3n2C2CCC2)nc1)C(F)(F)F` [Cpd 227, 6-[3-cyano-1-cyclobutyl-5-(trifluoromethyl)-1H-pyrrolo[2,3-b]pyridin-2-yl]-N-[(2S)-1,1,1-trifluoropropan-2-yl]pyridine-3-sulfonamide] are 183 to 185 °C and under 500 nM.
Compound `C[C@@H](NS(=O)(=O)c1ccc(-c2c(C#N)c3cc(C(F)(F)F)cnc3n2C2CCC2)nc1)C(F)(F)F` [Cpd 228, 6-[3-cyano-1-cyclobutyl-5-(trifluoromethyl)-1H-pyrrolo[2,3-b]pyridin-2-yl]-N-[(2R)-1,1,1-trifluoropropan-2-yl]pyridine-3-sulfonamide] had a melting point of 190 to 192 °C. In series [1], this compound showed an IC50 of under 500 nM.
